Data set [1] deals with T1, beta-catenin/TCF4 engagement (Homo sapiens, UniProt P35222).
T1 construct: expressed in transfected cells; host or cells: HEK293
T1 sequence (P35222 1-781): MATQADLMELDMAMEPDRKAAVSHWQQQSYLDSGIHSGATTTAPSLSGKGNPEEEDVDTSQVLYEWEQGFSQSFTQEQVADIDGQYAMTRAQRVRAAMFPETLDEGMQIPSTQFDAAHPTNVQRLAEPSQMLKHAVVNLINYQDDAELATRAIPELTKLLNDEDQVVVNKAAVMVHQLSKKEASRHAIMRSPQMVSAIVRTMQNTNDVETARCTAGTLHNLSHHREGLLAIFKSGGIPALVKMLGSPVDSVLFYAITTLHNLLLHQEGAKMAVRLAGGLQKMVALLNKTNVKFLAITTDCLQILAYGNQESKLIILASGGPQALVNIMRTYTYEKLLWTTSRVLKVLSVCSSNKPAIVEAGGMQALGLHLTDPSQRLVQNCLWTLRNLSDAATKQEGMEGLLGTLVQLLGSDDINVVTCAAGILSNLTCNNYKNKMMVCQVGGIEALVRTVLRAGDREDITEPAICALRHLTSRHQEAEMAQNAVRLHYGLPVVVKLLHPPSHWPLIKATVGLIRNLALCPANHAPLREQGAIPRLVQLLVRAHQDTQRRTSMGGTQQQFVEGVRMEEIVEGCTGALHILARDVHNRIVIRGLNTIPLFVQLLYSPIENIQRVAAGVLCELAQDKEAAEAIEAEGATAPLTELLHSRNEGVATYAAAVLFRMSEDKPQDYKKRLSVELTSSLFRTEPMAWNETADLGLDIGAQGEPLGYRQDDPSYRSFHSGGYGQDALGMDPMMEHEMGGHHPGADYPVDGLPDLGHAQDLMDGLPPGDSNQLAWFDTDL
In words: Nano-BRET target engagement assay (B-cat-Halo & TCF4-Luc in HEK293 cells). Type of data set: cell-based. In general terms: In BRET a luciferase serves as donor, and the signal depends on an acceptor being close.

A further data set can be described thus: Solubility in PBS. Format: physicochemical. The gist of the method:
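Read-out is the HPLC peak area of the supernatant from ultracentrifuged PBS solution, scaled against a 50 μM peptide DMSO injection; value reported as [(PBS area)/(DMSO area)]*50 uM.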

Data set [2] concerns the target T2, full-length beta-Catenin (Uniprot ID P35222) (Homo sapiens, UniProt P35222).
T2 construct: 10 nM full-length beta-Catenin (Uniprot ID P35222)
T2 sequence (P35222 1-781): T1 sequence (P35222 1-781)
In words: Fluorescence polarization IC50 (beta-catenin / 5FAM-TCF4 10-53 competition). Format: binding.

Setting [3] is: absolute IC50, read-out: NanoBRET Abs IC50.
The mark [4] stands for this setting: fluorescence polarization, read-out: beta-Catenin FP IC50.

SMILES strings stand for the structures. pIC50: −log10 of the molar value. ≈ marks a conversion by molar mass, not a printed value. Read-outs that look alike come from different tables or passages of the source.

Experimental findings from patent US20240116985A1, “STAPLED PEPTIDES AND METHODS THEREOF” (priority 2020, published 2024) are described below.

For orientation: pIC50 means the negative decadic logarithm of the IC50, by convention in mol/L. What is called Solubility is the dissolved amount per volume that the medium holds.

In the case of `COCCOCCC(=O)N1CCC[C@]12CC=CCCCC1(CCCC=CCCCCCC[C@@](C)(C(=O)N[C@@H](Cc3ccccc3Cl)C(=O)N[C@@H](Cc3csc4ccccc34)C(=O)N[C@@H](CCC(N)=O)C(N)=O)NC(=O)[C@H]([C@@H](C)O)NC(=O)[C@H](Cc3ccccc3)NC(=O)[C@H](C)NC(=O)[C@H](C)NC(=O)[C@H](CC(=O)O)NC(=O)[C@H](CC(=O)O)NC1=O)NC(=O)[C@H](CC(C)(C)C)NC(=O)[C@H](CC(=O)O)NC2=O` (stereo partly drawn) [I-1255, mPEG2-PL3-Asp-Npg-B5-Asp-Asp-Ala-Ala-Phe-Thr-S8-2C1F-BztA-Gln-NH2], the pIC50 in data set [1] (setting [3]) was < 4.70; in data set [2] (setting [4]), 7.49. Further, the “Solubility” value in the data set “Solubility in PBS” came out at 50 µM (≈ 98.9 µg/mL).
Take `C[C@@H]1NC(=O)[C@H](C)NC(=O)[C@H](CC(=O)O)NC(=O)[C@H](CC(=O)O)NC(=O)C2(CCCC=CCCCCCC[C@@](C)(C(=O)N[C@@H](Cc3ccccc3Cl)C(=O)N[C@@H](Cc3csc4ccccc34)C(=O)N[C@@H](CCC(N)=O)C(N)=O)NC(=O)[C@H]([C@@H](C)O)NC(=O)[C@H](Cc3ccccc3)NC1=O)CCCC=CC[C@]1(CCCN1S(C)(=O)=O)C(=O)N[C@@H](CC(=O)O)C(=O)N[C@@H](CC(C)(C)C)C(=O)N2` (stereo partly drawn) [I-1260, MeSO2-PL3-Asp-Npg-B5-Asp-Asp-Ala-Ala-Phe-Thr-S8-2C1F-BztA-Gln-NH2]: the pIC50 in data set [1] (setting [3]) is 4.62; in data set [2] (setting [4]) it was 7.64. Moreover, the “Solubility” value in the data set “Solubility in PBS” was 50 µM (≈ 96.3 µg/mL).
The matching figures for `COCCC(=O)N1CCC[C@]12CC=CCCCC1(CCCC=CCCCCCC[C@@](C)(C(=O)N[C@@H](Cc3ccccc3Cl)C(=O)N[C@@H](Cc3csc4ccccc34)C(=O)N[C@@H](CCC(N)=O)C(N)=O)NC(=O)[C@H]([C@@H](C)O)NC(=O)[C@H](Cc3ccccc3)NC(=O)[C@H](C)NC(=O)[C@H](C)NC(=O)[C@H](CC(=O)O)NC(=O)[C@H](CC(=O)O)NC1=O)NC(=O)[C@H](CC(C)(C)C)NC(=O)[C@H](CC(=O)O)NC2=O` (stereo partly drawn) [I-1261, MeOPr-PL3-Asp-Npg-B5-Asp-Asp-Ala-Ala-Phe-Thr-S8-2C1F-BztA-Gln-NH2]: 4.70, 7.51 and 50 µM (≈ 96.7 µg/mL).
For `CC(=O)N1CCC[C@]12CC=CCCCC1(CCCC=CCCCOC(=O)N3CC[C@@](C(=O)N[C@@H](Cc4ccccc4)C(=O)N[C@@H](Cc4csc5ccccc45)C(=O)N[C@@H](CO)C(N)=O)(C3)NC(=O)[C@H]([C@@H](C)O)NC(=O)[C@H](Cc3ccccc3)NC(=O)[C@H](C)NC(=O)[C@H](C)NC(=O)[C@H]([C@@H](C)O)NC(=O)[C@H](CC(=O)O)NC1=O)NC(=O)[C@H](CC(C)(C)C)NC(=O)[C@H](CC(=O)O)NC2=O` (stereo partly drawn) [I-1263, Ac-PL3-Asp-Npg-B5-Asp-Thr-Ala-Ala-Phe-Thr-PyrS2-Phe-BztA-Ser-NH2], the results for the pIC50 in data set [1] (setting [3]) and in data set [2] (setting [4]) were 4.70 and 7.37, respectively. In the data set “Solubility in PBS” (Solubility (uM)), the concentration in solution (Solubility) came to 12 µM (≈ 22.1 µg/mL).
`CC(=O)N1CCC[C@]12CC=CCCCC1(CCCC=CCCCOC(=O)N3CC[C@@](C(=O)N[C@@H](Cc4ccccc4)C(=O)N[C@@H](Cc4csc5ccccc45)C(=O)N[C@@H](CO)C(N)=O)(C3)NC(=O)[C@H]([C@@H](C)O)NC(=O)[C@H](Cc3ccccc3)NC(=O)[C@H](C)NC(=O)[C@H](CC(C)C)NC(=O)[C@H]([C@@H](C)O)NC(=O)[C@H](CC(=O)O)NC1=O)NC(=O)[C@H](CC(C)(C)C)NC(=O)[C@H](CC(=O)O)NC2=O` (stereo partly drawn) [I-1264, Ac-PL3-Asp-Npg-B5-Asp-Thr-Leu-Ala-Phe-Thr-PyrS2-Phe-BztA-Ser-NH2]: the pIC50 in data set [1] (NanoBRET Abs IC50, absolute IC50) was < 4.70; in data set [2] (beta-Catenin FP IC50, fluorescence polarization) it was 6.80. Besides, the “Solubility” value in “Solubility in PBS” came to 10 µM (≈ 18.9 µg/mL).
For the compound `CC(=O)N1CCC[C@]12CC=CCCCC1(CCCC=CCCCOC(=O)N3CC[C@@](C(=O)N[C@@H](Cc4ccccc4)C(=O)N[C@@H](Cc4csc5ccccc45)C(=O)N[C@@H](CO)C(N)=O)(C3)NC(=O)[C@H]([C@@H](C)O)NC(=O)[C@H](Cc3ccccc3)NC(=O)[C@H](CC(C)C)NC(=O)[C@H](C)NC(=O)[C@H]([C@@H](C)O)NC(=O)[C@H](CC(=O)O)NC1=O)NC(=O)[C@H](CC(C)(C)C)NC(=O)[C@H](CC(=O)O)NC2=O` (stereo partly drawn) [I-1265, Ac-PL3-Asp-Npg-B5-Asp-Thr-Ala-Leu-Phe-Thr-PyrS2-Phe-BztA-Ser-NH2], the pIC50 in data set [1] (setting [3]) is 4.64; in data set [2] (setting [4]), 6.82. Besides, the “Solubility” value in the data set “Solubility in PBS” was found to be 10 µM (≈ 18.9 µg/mL).
